# In ChEMBL document CHEMBL2413039, “Novel N-hydroxyfurylacrylamide-based histone deacetylase (HDAC) inhibitors with branched CAP group (Part 2)” (Bioorg Med Chem, 2013):
# Tests used:
# [1] = species on record: Homo sapiens; test: Selectivity ratio of IC50 for human recombinant HDAC4 to human recombinant HDAC6
# [2] = test system: PC-3; test: cells; assay type: functional, cell-based; settings: Homo sapiens, PC-3, 48 h
# [3] = species on record: Homo sapiens; test: Selectivity ratio of IC50 for human recombinant HDAC1 to human recombinant HDAC6
# [4] = test system: A549; test: cells; assay type: functional, cell-based; settings: Homo sapiens, A549, 48 h
# [5] = target: Histone deacetylase; assay type: protein assay, Homo sapiens; settings: hela
# [6] = target: Histone deacetylase 1 (Homo sapiens, UniProt Q13547); test: Inhibition of human recombinant HDAC1 using p53 residues 379-382 (RHKKAc) as substrate
# [7] = target: Histone deacetylase 4 (Homo sapiens, UniProt P56524); test: Inhibition of human recombinant HDAC4 using p53 residues 379-382 (RHKKAc) as substrate
# [8] = Partition coefficient, log D of the compound at pH 7.4 by Avdeef-Tsinman potentiometric titration method; assay type: physicochemical; settings: octanol/water
# [9] = Intrinsic aqueous solubility of the compound at pH 7.4 by Avdeef-Tsinman potentiometric titration method; assay type: physicochemical; settings: read-out: Intrinsic_solubility
# [10] = test system: HepG2; test: cells; assay type: functional, cell-based; settings: Homo sapiens, HepG2, 48 h
# [11] = test system: HCT-116; test: cells; assay type: functional, cell-based; settings: Homo sapiens, HCT-116, 48 h
# [12] = target: T1, Protein deacetylase HDAC6 (Homo sapiens, UniProt Q9UBN7)
# T1 sequence (Q9UBN7 whole entry): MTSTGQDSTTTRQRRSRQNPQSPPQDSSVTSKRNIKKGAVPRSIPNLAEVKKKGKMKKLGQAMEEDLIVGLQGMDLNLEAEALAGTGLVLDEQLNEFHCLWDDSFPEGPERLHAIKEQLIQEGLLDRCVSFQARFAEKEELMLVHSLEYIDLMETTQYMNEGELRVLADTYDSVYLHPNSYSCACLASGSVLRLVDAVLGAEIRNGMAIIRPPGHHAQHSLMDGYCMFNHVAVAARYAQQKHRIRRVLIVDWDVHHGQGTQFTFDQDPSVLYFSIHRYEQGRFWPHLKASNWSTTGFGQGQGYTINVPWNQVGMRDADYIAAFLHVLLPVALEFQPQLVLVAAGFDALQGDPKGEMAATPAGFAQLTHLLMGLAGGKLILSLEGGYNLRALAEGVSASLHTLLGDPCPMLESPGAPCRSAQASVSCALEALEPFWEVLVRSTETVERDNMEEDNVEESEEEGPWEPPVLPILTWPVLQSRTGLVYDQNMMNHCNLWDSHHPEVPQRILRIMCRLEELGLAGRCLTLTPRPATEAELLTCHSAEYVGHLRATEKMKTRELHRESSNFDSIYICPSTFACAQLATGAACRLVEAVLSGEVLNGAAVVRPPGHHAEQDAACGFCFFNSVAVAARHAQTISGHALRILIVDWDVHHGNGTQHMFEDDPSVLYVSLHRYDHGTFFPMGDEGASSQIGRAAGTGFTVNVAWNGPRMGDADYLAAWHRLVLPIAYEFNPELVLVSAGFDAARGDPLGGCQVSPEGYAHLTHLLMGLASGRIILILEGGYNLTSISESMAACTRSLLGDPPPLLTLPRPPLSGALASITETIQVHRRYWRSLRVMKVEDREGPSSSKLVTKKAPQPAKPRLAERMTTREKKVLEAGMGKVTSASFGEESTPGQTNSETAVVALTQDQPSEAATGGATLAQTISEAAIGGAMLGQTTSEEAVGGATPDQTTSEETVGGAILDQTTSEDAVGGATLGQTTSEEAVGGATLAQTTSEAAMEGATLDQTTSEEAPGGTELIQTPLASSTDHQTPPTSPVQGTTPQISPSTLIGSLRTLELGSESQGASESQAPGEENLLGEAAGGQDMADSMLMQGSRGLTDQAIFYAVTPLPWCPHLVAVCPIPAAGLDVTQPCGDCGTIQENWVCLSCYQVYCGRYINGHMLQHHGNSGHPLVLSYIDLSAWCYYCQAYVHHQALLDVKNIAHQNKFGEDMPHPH
# Chain of Histone deacetylase 1 (Q13547 whole entry, the tested form may be a part): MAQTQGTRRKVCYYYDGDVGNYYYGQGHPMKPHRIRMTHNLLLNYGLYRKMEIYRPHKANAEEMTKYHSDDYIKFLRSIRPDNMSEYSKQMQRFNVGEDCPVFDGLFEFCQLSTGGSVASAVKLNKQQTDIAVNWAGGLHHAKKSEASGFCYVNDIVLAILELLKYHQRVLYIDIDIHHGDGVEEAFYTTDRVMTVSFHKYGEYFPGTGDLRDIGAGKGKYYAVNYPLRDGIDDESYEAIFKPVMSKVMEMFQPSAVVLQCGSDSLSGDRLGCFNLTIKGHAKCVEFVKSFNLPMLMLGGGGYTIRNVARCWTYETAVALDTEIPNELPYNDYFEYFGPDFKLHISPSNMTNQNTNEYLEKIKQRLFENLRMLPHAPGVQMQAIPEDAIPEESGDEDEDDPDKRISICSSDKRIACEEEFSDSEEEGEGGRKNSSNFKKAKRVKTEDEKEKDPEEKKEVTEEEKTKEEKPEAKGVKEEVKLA
# Chain of Histone deacetylase 4 (P56524 whole entry, the tested form may be a part): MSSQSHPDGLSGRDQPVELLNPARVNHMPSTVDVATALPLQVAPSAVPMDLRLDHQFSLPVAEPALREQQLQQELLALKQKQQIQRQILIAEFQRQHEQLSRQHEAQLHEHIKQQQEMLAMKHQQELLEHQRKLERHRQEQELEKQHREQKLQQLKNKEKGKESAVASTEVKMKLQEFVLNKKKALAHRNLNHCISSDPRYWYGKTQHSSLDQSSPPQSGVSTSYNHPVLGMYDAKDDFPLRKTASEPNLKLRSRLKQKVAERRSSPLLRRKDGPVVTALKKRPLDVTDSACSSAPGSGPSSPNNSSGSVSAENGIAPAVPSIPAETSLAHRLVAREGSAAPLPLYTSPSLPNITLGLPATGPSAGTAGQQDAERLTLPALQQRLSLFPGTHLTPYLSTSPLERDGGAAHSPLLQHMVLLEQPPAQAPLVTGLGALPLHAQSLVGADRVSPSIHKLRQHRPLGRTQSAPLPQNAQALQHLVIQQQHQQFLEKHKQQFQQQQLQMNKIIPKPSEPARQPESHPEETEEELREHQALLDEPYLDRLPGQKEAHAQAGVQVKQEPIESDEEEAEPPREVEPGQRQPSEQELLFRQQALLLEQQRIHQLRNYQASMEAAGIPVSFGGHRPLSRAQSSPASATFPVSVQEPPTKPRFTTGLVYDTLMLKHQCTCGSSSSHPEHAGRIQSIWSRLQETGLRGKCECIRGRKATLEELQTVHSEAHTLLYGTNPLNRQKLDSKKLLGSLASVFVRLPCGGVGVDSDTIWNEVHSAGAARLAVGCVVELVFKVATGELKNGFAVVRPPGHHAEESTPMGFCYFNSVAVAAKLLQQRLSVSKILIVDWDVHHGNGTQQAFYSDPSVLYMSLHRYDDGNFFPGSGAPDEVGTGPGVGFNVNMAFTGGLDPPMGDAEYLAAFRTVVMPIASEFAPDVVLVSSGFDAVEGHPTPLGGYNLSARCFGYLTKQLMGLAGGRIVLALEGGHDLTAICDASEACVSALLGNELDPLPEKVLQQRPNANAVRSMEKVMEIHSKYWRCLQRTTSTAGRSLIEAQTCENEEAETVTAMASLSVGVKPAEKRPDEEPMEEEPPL
SMILES,Ratio IC50 [1],EC50 [2] [µM],Ratio IC50 [3],EC50 [4] [µM],IC50 [5] [µM],IC50 [6] [µM],IC50 [7] [µM],logD [8],solubility [9] [µM],EC50 [10] [µM],EC50 [11] [µM],IC50 [12] [nM]
O=C(/C=C/c1ccc(CN(CCO)Cc2ccccc2)o1)NO,26.3,> 138,29.7,97.2,0.17,12.7,11.3,1.62,4000,128,12.1,430
CCN(Cc1ccccc1)Cc1ccc(/C=C/C(=O)NO)o1,42.3,104,21.4,38.4,0.13,5.44,10.7,1.95,3000,> 167,6.37,250
CCCCCCCCN(Cc1ccccc1)Cc1ccc(/C=C/C(=O)NO)o1,–,42.3,–,6.59,2.55,–,–,5.28,1900,3.96,0.47,–
CCCCN(Cc1ccccc1)Cc1ccc(/C=C/C(=O)NO)o1,30.9,20.7,20,14.5,0.54,4.69,7.26,2.97,2300,24.3,18.3,230
CCCN(Cc1ccccc1)Cc1ccc(/C=C/C(=O)NO)o1,60,25,28.1,23.2,0.17,4.95,10.6,2.54,2800,16.7,24.9,180

# The next compounds have a lower EC50 [2] than those just listed; values first:
Ratio IC50 [1],EC50 [2] [µM],Ratio IC50 [3],EC50 [4] [µM],IC50 [5] [µM],IC50 [6] [µM],IC50 [7] [µM],logD [8],solubility [9] [µM],EC50 [10] [µM],EC50 [11] [µM],IC50 [12] [nM],SMILES
–,15.9,–,8.36,0.089,–,–,1.8,3110,22.6,4.02,–,O=C(/C=C/c1ccc(CN(CCO)Cc2ccc(-c3ccccc3)cc2)o1)NO
23.1,15.7,8.63,9.82,1.31,4.73,12.6,–,–,16.3,5.62,550,Cc1ccc(OCCCCN(Cc2ccccc2)Cc2ccc(/C=C/C(=O)NO)o2)cc1
